From ChEMBL document CHEMBL1128766, “The synthesis and lactamase inhibitory activity of 6-(carboxymethylene)penicillins and 7-(carboxymethylene)cephalosporins” (Bioorg Med Chem Lett, 1995)

Tests used:
Escherichia coli [1] = test: […] antibacterial activity (synergistic study) against Escherichia coli TEM-2; format: functional
Enterobacter cloacae [2] = test: […] antibacterial activity (synergistic study) against Enterobacter cloacae 12368; format: functional
Staphylococcus aureus = test: […] antibacterial activity (synergistic study) against Staphylococcus aureus ATCC 29213; format: functional
Escherichia coli [3] = test: […] antibacterial activity (synergistic study) against Escherichia coli OXA-1; format: functional
Escherichia coli [4] = test: […] antibacterial activity (synergistic study) against Escherichia coli TEM-1; format: functional
Enterobacter cloacae [5] = test: […] antibacterial activity (synergistic study) against Enterobacter cloacae P99; format: functional
Beta-lactamase [6] = molecular target: T1, Beta-lactamase (Enterobacter cloacae, UniProt P05364)
T1 sequence (P05364 whole entry): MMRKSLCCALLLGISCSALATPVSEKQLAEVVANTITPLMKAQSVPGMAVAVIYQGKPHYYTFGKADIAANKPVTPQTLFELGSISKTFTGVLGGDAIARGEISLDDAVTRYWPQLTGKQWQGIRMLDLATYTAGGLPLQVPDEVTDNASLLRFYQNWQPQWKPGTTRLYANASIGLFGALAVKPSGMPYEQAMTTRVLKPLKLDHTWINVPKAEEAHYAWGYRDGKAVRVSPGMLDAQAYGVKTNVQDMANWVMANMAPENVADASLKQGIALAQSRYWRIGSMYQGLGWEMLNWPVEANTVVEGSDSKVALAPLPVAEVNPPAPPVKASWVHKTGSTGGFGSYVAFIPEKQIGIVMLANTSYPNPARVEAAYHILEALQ
Description: Inhibitory activity against beta-Lactamase enzyme derived from Enterobacter cloacae P99

Beta-lactamase TEM = Beta-lactamase TEM (Escherichia coli, UniProt P62593); test: Inhibitory activity against beta-Lactamase enzyme derived from Escherichia coli WC3310 TEM-2
Sequence of Beta-lactamase TEM (P62593 whole entry): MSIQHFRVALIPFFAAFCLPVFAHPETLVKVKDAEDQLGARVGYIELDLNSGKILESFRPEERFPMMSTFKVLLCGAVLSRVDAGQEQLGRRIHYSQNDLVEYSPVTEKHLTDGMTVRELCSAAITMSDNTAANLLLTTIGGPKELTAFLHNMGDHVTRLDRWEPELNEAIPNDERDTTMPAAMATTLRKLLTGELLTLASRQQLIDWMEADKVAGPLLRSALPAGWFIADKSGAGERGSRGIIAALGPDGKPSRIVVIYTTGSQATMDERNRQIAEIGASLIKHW

Beta-lactamase [7] = molecular target: T1, Beta-lactamase; remark: listed apart in the source
Description: Inhibitory activity against beta-Lactamase enzyme derived from Enterobacter cloacae SC 12368 E-2

| Compound | MIC (Escherichia coli [1]) [mg/L] | MIC (Enterobacter cloacae [2]) [mg/L] | MIC (Staphylococcus aureus) [mg/L] | MIC (Escherichia coli [3]) [mg/L] | MIC (Escherichia coli [4]) [mg/L] | MIC (Enterobacter cloacae [5]) [mg/L] | IC50 (Beta-lactamase [6]) [µM] | IC50 (Beta-lactamase TEM) [µM] | IC50 (Beta-lactamase [7]) [µM] |
| --- | --- | --- | --- | --- | --- | --- | --- | --- | --- |
| CC(=O)OCC1=C(C(=O)[O-])N2C(=O)/C(=C/C(=O)OC(C)(C)C)[C@H]2S(=O)(=O)C1.[Na+] | > 128 | > 128 | 4 | > 128 | > 128 | > 128 | – | – | – |
| CC(C)(C)OC(=O)/C=C1/C(=O)N2[C@@H](C(=O)[O-])C(C)(C)S(=O)(=O)[C@H]12.[Na+] | > 128 | > 128 | > 128 | > 128 | > 128 | > 128 | 4.09 | 0.136 | 13.6 |
| CC1(C)[C@H](C(=O)[O-])N2C(=O)/C(=C/C(=O)[O-])[C@H]2S1(=O)=O.[Na+].[Na+] | > 128 | > 128 | > 128 | > 128 | > 128 | > 128 | 0.045 | 0.12 | 0.091 |
| COC(=O)/C=C1/C(=O)N2[C@@H](C(=O)[O-])C(C)(C)S(=O)(=O)[C@H]12.[Na+] | > 128 | > 128 | > 128 | > 128 | > 128 | > 128 | 0.154 | 0.308 | 0.615 |
| CCN1CCN(C(=O)NC(C(=O)N[C@H]2C(=O)N3[C@H]2SC(C)(C)[C@H]3C(=O)O)c2ccccc2)C(=O)C1=O.COC(=O)/C=C1/C(=O)N2[C@@H](C(=O)[O-])C(C)(C)S(=O)(=O)[C@H]12.[Na+] (some centres undefined) | 128 | 16 | 1 | 16 | 64 | 128 | – | – | – |
| CC(=O)OCC1=C(C(=O)[O-])N2C(=O)/C(=C/C(=O)[O-])[C@H]2S(=O)(=O)C1.[Na+].[Na+] | > 128 | > 128 | 16 | > 128 | > 128 | > 128 | > 20 | 0.4 | > 20 |
| CC(C)(C)OC(=O)/C=C1/C(=O)N2[C@@H]1SC(C)(C)[C@@H]2C(=O)O | – | – | – | – | – | – | 8.95 | > 20 | > 20 |
| COC(=O)/C=C1/C(=O)N2C(C(=O)O)=C(COC(C)=O)CS[C@H]12 | – | – | – | – | – | – | > 20 | > 20 | > 20 |
| CC(=O)/C=C1/C(=O)N2[C@@H]1SC(C)(C)[C@@H]2C(=O)O | – | – | – | – | – | – | 0.361 | 0.003 | 5.41 |
| COC(=O)/C=C1/C(=O)N2[C@@H]1SC(C)(C)[C@@H]2C(=O)O | – | – | – | – | – | – | > 20 | > 20 | > 20 |
| COC(=O)/C=C1/C(=O)N2C(C(=O)[O-])=C(COC(C)=O)CS(=O)(=O)[C@H]12.[Na+] | > 128 | > 128 | > 128 | > 128 | > 128 | > 128 | > 20 | 0.037 | > 20 |
| C=C=C1C(=O)N2C(C(=O)O)=C(COC(C)=O)CS(=O)(=O)[C@H]12 | – | – | – | – | – | – | 0.13 | > 20 | 0.26 |
| CC(=O)OCC1=C(C(=O)O)N2C(=O)/C(=C/C(=O)O)[C@H]2SC1 | – | – | – | – | – | – | > 20 | > 20 | > 20 |
| CC1(C)[C@H](C(=O)[O-])N2C(=O)/C(=C/C(=O)[O-])[C@H]2S1(=O)=O.CCN1CCN(C(=O)NC(C(=O)N[C@H]2C(=O)N3[C@H]2SC(C)(C)[C@H]3C(=O)O)c2ccccc2)C(=O)C1=O.[Na+].[Na+] (some centres undefined) | 64 | 16 | 4 | 16 | 32 | 128 | – | – | – |
| CC(=O)OCC1=C(C(=O)[O-])N2C(=O)/C(=C/C(=O)OC(C)(C)C)[C@H]2S(=O)(=O)C1.CCN1CCN(C(=O)NC(C(=O)N[C@H]2C(=O)N3[C@H]2SC(C)(C)[C@H]3C(=O)O)c2ccccc2)C(=O)C1=O.[Na+] (some centres undefined) | 128 | 16 | 4 | 64 | 64 | 128 | – | – | – |
| C=C1C(=O)N2C(C(=O)O)=C(COC(C)=O)CS(=O)(=O)[C@H]12 | – | – | – | – | – | – | 0.025 | 0.8 | 0.025 |
| CC(=O)OCC1=C(C(=O)[O-])N2C(=O)/C(=C/C(=O)[O-])[C@H]2S(=O)(=O)C1.CCN1CCN(C(=O)NC(C(=O)N[C@H]2C(=O)N3[C@H]2SC(C)(C)[C@H]3C(=O)O)c2ccccc2)C(=O)C1=O.[Na+].[Na+] (some centres undefined) | 128 | 32 | 4 | 64 | 64 | 128 | – | – | – |
| CC1(C)S[C@@H]2/C(=C\C(=O)O)C(=O)N2[C@H]1C(=O)O | – | – | – | – | – | – | 13.9 | > 20 | > 20 |
| CCN1CCN(C(=O)NC(C(=O)N[C@H]2C(=O)N3[C@H]2SC(C)(C)[C@H]3C(=O)O)c2ccccc2)C(=O)C1=O.COC(=O)/C=C1/C(=O)N2C(C(=O)[O-])=C(COC(C)=O)CS(=O)(=O)[C@H]12.[Na+] (some centres undefined) | 64 | 16 | 4 | 64 | 32 | 128 | – | – | – |
| CC(C)(C)OC(=O)/C=C1/C(=O)N2[C@@H](C(=O)[O-])C(C)(C)S(=O)(=O)[C@H]12.CCN1CCN(C(=O)NC(C(=O)N[C@H]2C(=O)N3[C@H]2SC(C)(C)[C@H]3C(=O)O)c2ccccc2)C(=O)C1=O.[Na+] (some centres undefined) | > 128 | 32 | 2 | 32 | 128 | 128 | – | – | – |
| C[C@]1(Cn2ccnn2)[C@H](C(=O)O)N2C(=O)C[C@H]2S1(=O)=O (single isomer, unassigned) [TAZOBACTAM] | > 128 | > 128 | 64 | > 128 | > 128 | > 128 | – | – | – |
| CCN1CCN(C(=O)N[C@@H](C(=O)NC2C(=O)N3C2SC(C)(C)C3C(=O)O)c2ccccc2)C(=O)C1=O.C[C@]1(Cn2ccnn2)[C@H](C(=O)O)N2C(=O)C[C@H]2S1(=O)=O (single isomer, unassigned; form 1) | 8 | 16 | 1 | 16 | 2 | 16 | – | – | – |
| CCN1CCN(C(=O)N[C@@H](C(=O)NC2C(=O)N3C2SC(C)(C)C3C(=O)O)c2ccccc2)C(=O)C1=O (single isomer, unassigned; form 2) [PIPERACILLIN] | > 128 | 16 | 4 | 64 | > 128 | > 128 | – | – | – |
